These results are taken from publication PMC3157558, “Huprines as a new family of dual acting trypanocidal–antiplasmodial agents” (Bioorganic & Medicinal Chemistry, 2011).

Structures can show the parent of a compound that is named as a salt. Where two headings read alike, the source gives them in different places.

The test system of data set [1] is bloodstream form T. brucei. In words: microbe, parasite or virus in culture. The format is cell-based, Trypanosoma brucei. The settings on record: for SI (selectivity index, ratio of cytotoxic to trypanocidal IC50 values): IC50 against L6 cells/IC50 against T. brucei.
Description: (§1) Trypanocidal activity was assessed by growing parasites for 48 h in the presence of various drug concentrations and determining the levels which inhibited growth by 50% (IC50) and 90% (IC90). In the case of untreated cultures, cell densities increased from 0.25 × 10^5 to 1 × 10^6 over this period. Cell densities at each drug concentration were determined using a hemocytometer and drug sensitivity was expressed as a percentage of growth of control cells.
Data set [2] relates to rat skeletal myoblast L6 cells. Description: Cytotoxic activity against rat skeletal myoblast L6 cells (Alamar Blue). It counts as cell-based. The settings on record: 6 days incubation, mean of triplicate ± SEM. How it is done: Cytotoxicity against mammalian cells was assessed using microtitre plates following a described procedure.[41] Briefly, L6 cells (a rat skeletal muscle line) were seeded at 1 × 10^4 ml^−1 in 200 μL of growth medium containing different compound concentrations. The plates were incubated for 6 days at 37 °C and 20 μL Alamar Blue (Biosource UK Ltd) was then added to each well. After a further 8 h incubation, the fluorescence was determined using a Gemini fluorescent plate reader (Molecular Devices).
(Alamar Blue is a resazurin reagent that responds to reducing activity.)

The subject of data set [3] is memory and learning activities. The note with it: cited from earlier work.
Data set [4] deals with Alzheimer's disease related brain neuropathology. More on the design: method as in PMID 20689242. The note with it: transgenic mouse model; cited from earlier work.
Another data set has as its system acetylcholinesterase. More on the design: method as in PMID 10464010, PMID 11101357. The settings on record: cited from earlier work.
The next data set in a line: in vitro. The settings on record: 427, rat. It counts as cell-based, Trypanosoma brucei.
Where [5] appears, read: Trypanosoma brucei, bloodstream form T. brucei, pH 7.4, 48 h growth, concentration inhibiting growth by 90%, mean of triplicate ± SEM, read-out: T. brucei IC90.
Setting [6] is: Trypanosoma brucei, bloodstream form T. brucei, pH 7.4, 48 h growth, mean of triplicate experiments ± SEM, read-out: T. brucei IC50.
[7] abbreviates: bloodstream form T. brucei, pH 7.4, 48 h growth, concentration inhibiting growth by 90%, mean of triplicate ± SEM, read-out: T. brucei IC90.
Setting [8] is: bloodstream form T. brucei, pH 7.4, 48 h growth, mean of triplicate experiments ± SEM, read-out: T. brucei IC50.
[9] abbreviates: Trypanosoma brucei, 48 h, pH 7.4, read-out: T. brucei IC50.
The mark [10] stands for this setting: Trypanosoma brucei, 48 h, pH 7.4, read-out: T. brucei IC90.

Description for in vitro: as §1

As a reminder, the IC90 is the point of the concentration-response curve where the effect stands at 90%. A word on the IC50: it is the midpoint of a concentration-inhibition curve. `CCC1=CC2Cc3nc4cc(Cl)ccc4c(N)c3[C@@H](C1)C2` [huprine 4]: in data set [1] (setting [5]), the IC90 stood at 1.76 ± 0.2 µM. The IC50 turned out to be 0.84 ± 0.06 µM in data set [1] (setting [6]) and 12.5 ± 0.4 µM in data set [2] (144 h). Also, the “adverse effects in behavioural studies” value in data set [3] (behavioural studies in mice) is listed as “did not induce adverse effects”. Besides, in data set [3] (middle aged mice), the “effect on memory and learning activities” value is “ameliorate memory and learning activities”. Also, the “effect on Alzheimer's disease related brain neuropathology” value in data set [4] is reported as “ameliorate”. The “acetylcholinesterase inhibitory potency (rank in words)” value with acetylcholinesterase is reported as “most potent acetylcholinesterase inhibitors”.
Turning to `CC(C)(C)C1=CC2Cc3nc4ccccc4c(N)c3C(C1)C2` (stereo not drawn) [huprine 14], the “SI (selectivity index, ratio of cytotoxic to trypanocidal IC50 values)” value in data set [1] is given as 13.2. In addition, the IC90 in data set [1] (setting [7]) came to 3.05 ± 0.03 µM. Also, the values for the concentration for half-maximal inhibition (IC50) in data set [1] (setting [8]) and in data set [2] were 0.88 ± 0.26 µM and 11.6 ± 0.5 µM, respectively. Further, the “acetylcholinesterase inhibitory potency (rank in words)” value with acetylcholinesterase is on record as “least potent acetylcholinesterase inhibitors”.
In the case of `CC1=CC2Cc3nc4cc(Cl)ccc4c(N)c3C(C1)C2` (stereo not drawn) [huprine 3], the selectivity ratio in the data set “in vitro” worked out at 12.8. Further, the concentration for an effect of 90% (IC90) in data set [1] (setting [5]) amounted to 2.94 ± 0.2 µM. The IC50 in data set [1] (setting [6]) is 0.61 ± 0.03 µM; in data set [2] (144 h), 7.8 ± 0.47 µM. Moreover, the “acetylcholinesterase inhibitory potency (rank in words)” value with acetylcholinesterase was “most potent acetylcholinesterase inhibitors”.
Consider `CC(C)C1=CC2Cc3nc4ccccc4c(N)c3C(C1)C2` (stereo not drawn) [huprine 5], for which the IC50 in data set [1] (setting [9]) worked out at 2.06 ± 0.44 µM. In addition, the 90% effect concentration (IC90) in data set [1] (setting [10]) came out at 4.76 ± 0.82 µM.
For `CC(C)C1=CC2Cc3nc4cccc(F)c4c(N)c3C(C1)C2` (stereo not drawn) [huprine 10, 12-Amino-1-fluoro-6,7,10,11-tetrahydro-9-isopropyl-7,11-methanocycloocta[b]quinoline hydrochloride], in data set [1] (setting [7]), the 90% effect concentration (IC90) was 7.75 ± 0.23 µM. For the same compound, in data set [1] (setting [8]), the IC50 stood at 2.6 ± 0.55 µM.
As to `CC(C)C1=CC2Cc3nc4cc(Cl)ccc4c(N)c3C(C1)C2` (stereo not drawn) [huprine 8, 12-Amino-3-chloro-6,7,10,11-tetrahydro-9-isopropyl-7,11-methanocycloocta[b]quinoline hydrochloride], the concentration for an effect of 90% (IC90) in data set [1] (setting [7]) was determined as 4.34 ± 0.03 µM. In addition, the half-inhibitory concentration (IC50) in data set [1] (setting [8]) came to 2.45 ± 0.37 µM.
Turning to `CCC1=CC2Cc3nc4ccccc4c(N)c3C(C1)C2` (stereo not drawn) [huprine 12], the “SI (selectivity index, ratio of cytotoxic to trypanocidal IC50 values)” value in data set [1] amounted to 12.1. Also, the IC90 in data set [1] (setting [7]) is 4.53 ± 0.16 µM. Also, the results for the half-inhibitory concentration (IC50) in data set [1] (setting [8]) and in data set [2] were 1.29 ± 0.16 µM and 15.6 ± 1.6 µM, respectively.
As to `CCC1=CC2Cc3nc4cccc(C)c4c(N)c3C(C1)C2` (stereo not drawn) [huprine 20], the 90% effect concentration (IC90) in data set [1] (setting [7]) was determined as 8.86 ± 0.15 µM. Besides, the IC50 in data set [1] (setting [8]) was 5.28 ± 1.11 µM.
Turning to `C=CCC1=CC2Cc3nc4cccc(F)c4c(N)c3C(C1)C2` (stereo not drawn) [huprine 11, 9-Allyl-12-amino-1-fluoro-6,7,10,11-tetrahydro-7,11-methanocycloocta[b]quinoline hydrochloride], in data set [1] (setting [9]), the half-inhibitory concentration (IC50) is 3.62 ± 0.54 µM. Besides, the IC90 in data set [1] (setting [10]) is 8.73 ± 0.69 µM.
For the compound `CC1=CC2Cc3nc4cc(C)ccc4c(N)c3C(C1)C2` (stereo not drawn) [huprine 17], the “SI (selectivity index, ratio of cytotoxic to trypanocidal IC50 values)” value in data set [1] was 19.2. Besides, in data set [1] (setting [7]), the 90% effect concentration (IC90) amounted to 3.31 ± 0.59 µM. Moreover, the IC50 in data set [1] (setting [8]) was 1.04 ± 0.05 µM; in data set [2], 20 ± 0.5 µM.
As to `C=CCC1=CC2Cc3nc4ccccc4c(N)c3C(C1)C2` (stereo not drawn) [huprine 6], in data set [1] (setting [5]), the IC90 came to 8.52 ± 0.19 µM. For the same compound, the concentration for half-maximal inhibition (IC50) in data set [1] (setting [6]) came to 4.08 ± 0.45 µM.
Turning to `CCC1=CC2Cc3nc4cccc(Cl)c4c(N)c3C(C1)C2` (stereo not drawn) [huprine 18], the “SI (selectivity index, ratio of cytotoxic to trypanocidal IC50 values)” value in data set [1] is recorded as 15.7. The IC90 in data set [1] (setting [7]) came to 3.11 ± 0.29 µM. The IC50 in data set [1] (setting [8]) is 1.36 ± 0.19 µM; in data set [2] it was 21.3 ± 1.3 µM.
Regarding `C=CCC1=CC2Cc3nc4cc(Cl)ccc4c(N)c3C(C1)C2` (stereo not drawn) [huprine 9, 9-Allyl-12-amino-3-chloro-6,7,10,11-tetrahydro-7,11-methanocycloocta[b]quinoline hydrochloride], the selectivity ratio in “in vitro” (IC50 against L6 cells/IC50 against T. brucei, read-out: SI (selectivity index, ratio of cytotoxic to trypanocidal IC50 values)) turned out to be 16.3. In data set [1] (setting [5]), the IC90 was determined as 2.87 ± 0.18 µM. For the same compound, the values for the IC50 in data set [1] (setting [6]) and in data set [2] (144 h) were 0.76 ± 0.07 µM and 12.4 ± 0.4 µM, respectively.
